Experimental data: PMC10794144, “A novel antibiotic class targeting the lipopolysaccharide transporter” (Nature, 2024)
Where two headings read alike, the source gives them in different places.

Tests used:
[1] = tested on: S. aureus ATCC 29213; assay: microbe, parasite or virus in culture; conditions: for MIC: Staphylococcus aureus; for RO7223280 MIC 100%: S. aureus ATCC 29213, read at 100%
Method: (§1) MIC determinations were performed using the broth microdilution method and in line with CLSI guidelines M07 and M100 (refs. [37],[38]). Bacterial inocula were prepared by diluting a 0.5 McFarland suspension in CAMHB or lysogeny broth (LB) specifically for A. baylyi isolates. […] MIC values of all of the tested antibiotics were read as the lowest compound concentration inhibiting bacterial growth by naked eye or beyond which the OD600 ceased to decrease.

[2] = tested on: P. aeruginosa ATCC 27853; assay: microbe, parasite or virus in culture; conditions: for MIC: Pseudomonas aeruginosa; for RO7223280 MIC 100%: P. aeruginosa ATCC 27853, read at 100%
Method: as §1

[3] = tested on: HEK293 cells; assay: Cell-viability assay (CellTiterGlo); format: cell-based; conditions: Homo sapiens, 24 h, 37 °C, 3.125–100 μM, n = 2
Method: Compounds were prepared in serial dilutions (3.125–100 μM in 1% DMSO) and transferred to 384-well plates together with a positive (Staurosporine) and a negative (no compound) control. In total, 25 μl of HEK293 cells (ATCC; verified by short tandem repeat PCR and mycoplasma negative) (50,000 cells per ml) were added in either low-serum-containing (0.5% fetal bovine serum (FBS)) or high-serum-containing (12.5% FBS, 1% BSA) medium (Dulbecco’s modified Eagle medium (DMEM), glucose, L-glutamine). The plates were incubated for 24 h at 37 °C and a mixture of CellTiterGlo and DMEM was added to the plates. After incubation at room temperature, the luminescence signal was read using a BioTeK reader and a calculated IC50 was derived from the data.

[4] = Micronucleus test (MNT)
[5] = target: CYP3A4 (Homo sapiens, UniProt P08684); assay: CYP inhibition; format: in vitro ADME
Sequence of CYP3A4 (P08684 whole entry): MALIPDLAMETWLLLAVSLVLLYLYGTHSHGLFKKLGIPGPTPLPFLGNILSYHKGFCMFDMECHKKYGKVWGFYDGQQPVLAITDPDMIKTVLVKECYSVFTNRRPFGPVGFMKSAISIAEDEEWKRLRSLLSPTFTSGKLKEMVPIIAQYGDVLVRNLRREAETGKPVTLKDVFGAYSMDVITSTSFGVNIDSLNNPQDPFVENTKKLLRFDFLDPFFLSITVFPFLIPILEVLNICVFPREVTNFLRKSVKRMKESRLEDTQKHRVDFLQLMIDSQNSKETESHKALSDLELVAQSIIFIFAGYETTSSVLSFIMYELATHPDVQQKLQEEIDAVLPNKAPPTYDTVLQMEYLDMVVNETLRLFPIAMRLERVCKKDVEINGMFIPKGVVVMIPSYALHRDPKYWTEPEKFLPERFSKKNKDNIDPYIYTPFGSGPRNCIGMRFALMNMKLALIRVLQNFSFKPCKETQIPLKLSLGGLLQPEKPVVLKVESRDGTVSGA

[6] = target: CYP2C9 (Homo sapiens, UniProt P11712); assay: CYP inhibition; format: in vitro ADME
Sequence of CYP2C9 (P11712 whole entry): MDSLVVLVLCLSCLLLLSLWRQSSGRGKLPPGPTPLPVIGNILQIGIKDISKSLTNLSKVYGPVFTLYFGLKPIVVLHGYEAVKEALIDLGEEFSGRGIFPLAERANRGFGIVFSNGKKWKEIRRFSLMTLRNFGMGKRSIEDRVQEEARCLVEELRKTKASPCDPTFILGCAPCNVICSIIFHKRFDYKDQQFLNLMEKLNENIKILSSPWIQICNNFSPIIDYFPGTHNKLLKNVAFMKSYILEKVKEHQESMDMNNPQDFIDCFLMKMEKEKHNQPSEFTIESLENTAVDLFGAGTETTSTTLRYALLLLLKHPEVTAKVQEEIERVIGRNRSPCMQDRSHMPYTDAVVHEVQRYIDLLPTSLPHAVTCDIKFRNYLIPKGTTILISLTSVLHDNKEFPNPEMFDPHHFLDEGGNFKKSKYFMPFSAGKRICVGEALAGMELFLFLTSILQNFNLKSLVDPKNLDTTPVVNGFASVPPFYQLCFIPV

[7] = GSH adduct; format: in vitro ADME
[8] = Fraction unbound in mouse plasma; format: in vitro ADME
[9] = Mouse pharmacokinetics study, i.v. bolus; format: in vivo; conditions: male CD1 mice, 1 mg/kg IV; for Vss / t1/2, terminal plasma half-life: n = 3; for Cl: n = 3, LC-MS, non-compartmental
Method: Three male CD1 mice were administered with compound formulation (0.5 mg ml^−1 in 0.9% aqueous sodium chloride solution) as an intravenous bolus dose of 1 mg per kg. Blood was sampled at 0.08, 0.25, 0.5, 1, 2, 4, 7 and 24 h after administration and the blood collecting tubes were centrifuged for 5 min at 5,200g at room temperature to isolate the plasma supernatant. The concentrations of compound in the plasma were analysed using a liquid chromatography–mass spectrometry method with a calibration range of 5–10,000 ng ml^−1. The pharmacokinetic parameters were derived from the individual concentration data and were estimated by non-compartmental analysis.

[10] = Rat plasma precipitation assay; conditions: Wistar rat heparin plasma 1:1 with compound in saline/PBS; absorbance difference OD362 ≥ 0.05; n = 1
Method: Whole blood was obtained from WISTAR rats and collected in 1.2 ml heparin tubes for the preparation of heparin plasma. The tubes were then centrifuged for 5 min at 5,200g at room temperature to isolate the plasma supernatant. Test compounds were received as powder and solubilized at various concentrations in 0.9% aqueous sodium chloride solution and adjusted for pH with phosphate-buffered saline (PBS). The assay was conducted in 384-well plates. Rat plasma (10 µl) was added to 10 µl of the various compound solutions. A total of 10 µl of vehicle (0.9% aqueous sodium chloride solution, PBS) added to the plasma was used as a negative control. The absorption was measured at 362 nm. Raw data were obtained as absorbance data. The difference between the absorbance of the sample and the mean absorbance of the vehicle was calculated. The minimum effect concentration was defined as the lowest concentration giving an absorbance difference of OD362 ≥ 0.05.

[11] = target: T1, Abl kinase (Homo sapiens, UniProt P00519); assay: Off-target screening (CEREP); format: biochemical; conditions: read-out: percent inhibition
T1 construct: purchased Eurofins CEREP SA
T1 sequence (P00519 whole entry): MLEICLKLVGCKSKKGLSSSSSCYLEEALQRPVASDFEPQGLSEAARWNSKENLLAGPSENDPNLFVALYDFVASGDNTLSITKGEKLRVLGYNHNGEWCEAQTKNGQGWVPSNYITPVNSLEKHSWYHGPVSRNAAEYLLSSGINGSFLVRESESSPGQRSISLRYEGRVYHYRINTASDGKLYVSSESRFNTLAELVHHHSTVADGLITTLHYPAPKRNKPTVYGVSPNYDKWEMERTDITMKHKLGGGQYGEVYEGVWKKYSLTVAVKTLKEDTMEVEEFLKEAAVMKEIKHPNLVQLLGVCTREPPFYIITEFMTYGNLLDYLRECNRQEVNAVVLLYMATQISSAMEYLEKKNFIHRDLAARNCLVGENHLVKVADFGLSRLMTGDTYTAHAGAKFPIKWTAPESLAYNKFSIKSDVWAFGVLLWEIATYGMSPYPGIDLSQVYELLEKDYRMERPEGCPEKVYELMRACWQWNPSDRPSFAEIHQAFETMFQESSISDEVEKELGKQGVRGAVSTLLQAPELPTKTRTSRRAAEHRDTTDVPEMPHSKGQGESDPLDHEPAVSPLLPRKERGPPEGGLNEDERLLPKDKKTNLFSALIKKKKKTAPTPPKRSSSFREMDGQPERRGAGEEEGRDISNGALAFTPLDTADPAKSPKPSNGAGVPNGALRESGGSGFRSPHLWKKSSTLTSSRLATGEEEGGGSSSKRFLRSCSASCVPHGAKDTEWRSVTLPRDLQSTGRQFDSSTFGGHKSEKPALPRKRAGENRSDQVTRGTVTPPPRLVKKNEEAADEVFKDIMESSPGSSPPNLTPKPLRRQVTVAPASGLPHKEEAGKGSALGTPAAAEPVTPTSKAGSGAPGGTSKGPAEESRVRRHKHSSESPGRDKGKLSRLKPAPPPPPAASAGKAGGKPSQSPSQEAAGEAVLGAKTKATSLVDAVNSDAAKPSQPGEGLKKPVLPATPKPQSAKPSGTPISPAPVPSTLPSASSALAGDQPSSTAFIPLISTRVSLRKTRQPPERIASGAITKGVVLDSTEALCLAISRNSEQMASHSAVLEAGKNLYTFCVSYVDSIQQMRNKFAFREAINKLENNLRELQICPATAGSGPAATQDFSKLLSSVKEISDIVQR
Method: (§2) Supplementary Table 1 │ Off-target activity screening f or MCP compou nds […]
(§3) The assays given in the table above were conducted at Eurofins CEREP S A (Celle-Lévescault, France) and were run as single point measurements in duplicates in the presence of 10 µ M of the test compound and reported as percent inhibition of the radioligand signal or control enzymatic activity. n.d., not

[12] = target: T2, Angiotensin converting enzyme (Homo sapiens, UniProt P12821); assay: Off-target screening (CEREP); format: biochemical; conditions: read-out: percent inhibition
T2 construct: purchased Eurofins CEREP SA
T2 sequence (P12821 30-1306): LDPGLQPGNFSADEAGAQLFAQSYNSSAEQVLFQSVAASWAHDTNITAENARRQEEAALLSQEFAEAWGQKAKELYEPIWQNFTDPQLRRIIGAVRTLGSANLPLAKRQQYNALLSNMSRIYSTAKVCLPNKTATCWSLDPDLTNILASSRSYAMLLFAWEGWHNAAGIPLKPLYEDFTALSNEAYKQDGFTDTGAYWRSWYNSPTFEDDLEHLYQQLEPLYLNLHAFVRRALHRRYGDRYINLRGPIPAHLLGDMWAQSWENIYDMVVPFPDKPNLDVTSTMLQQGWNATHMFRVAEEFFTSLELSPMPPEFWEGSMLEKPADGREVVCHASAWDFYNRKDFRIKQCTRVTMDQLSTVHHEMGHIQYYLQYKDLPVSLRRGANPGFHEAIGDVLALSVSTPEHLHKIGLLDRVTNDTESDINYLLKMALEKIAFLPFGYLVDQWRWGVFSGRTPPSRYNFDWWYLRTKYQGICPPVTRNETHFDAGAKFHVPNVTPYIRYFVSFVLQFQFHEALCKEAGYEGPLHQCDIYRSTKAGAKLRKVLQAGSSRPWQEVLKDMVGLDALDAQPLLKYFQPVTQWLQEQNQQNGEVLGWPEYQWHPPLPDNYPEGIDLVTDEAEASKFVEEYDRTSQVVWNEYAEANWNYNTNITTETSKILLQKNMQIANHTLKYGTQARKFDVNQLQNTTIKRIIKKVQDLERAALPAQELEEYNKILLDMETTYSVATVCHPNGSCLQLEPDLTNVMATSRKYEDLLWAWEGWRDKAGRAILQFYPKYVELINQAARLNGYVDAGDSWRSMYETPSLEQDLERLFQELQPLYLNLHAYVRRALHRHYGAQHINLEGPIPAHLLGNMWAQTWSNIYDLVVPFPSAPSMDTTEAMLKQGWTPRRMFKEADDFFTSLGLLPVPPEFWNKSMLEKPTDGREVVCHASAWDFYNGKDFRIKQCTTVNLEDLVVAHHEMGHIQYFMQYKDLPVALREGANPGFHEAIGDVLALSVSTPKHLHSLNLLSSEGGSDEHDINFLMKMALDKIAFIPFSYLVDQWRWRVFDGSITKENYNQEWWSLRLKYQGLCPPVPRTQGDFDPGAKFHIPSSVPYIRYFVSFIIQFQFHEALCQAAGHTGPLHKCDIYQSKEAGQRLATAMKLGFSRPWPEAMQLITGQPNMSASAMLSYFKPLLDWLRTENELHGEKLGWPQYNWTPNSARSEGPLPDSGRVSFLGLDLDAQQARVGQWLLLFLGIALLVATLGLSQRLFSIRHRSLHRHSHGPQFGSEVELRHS
Method: as §2, §3

[13] = target: T3, CDK2 (Homo sapiens, UniProt P24941); assay: Off-target screening (CEREP); format: biochemical; conditions: read-out: percent inhibition
T3 construct: purchased Eurofins CEREP SA
Method: as §2, §3

[14] = tested on: GSK-3A (second line so named); assay: Off-target screening (CEREP); format: biochemical, human; conditions: 10 µM, duplicates
Method: as §2, §3

[15] = tested on: C. albicans ATCC 90028; conditions: C. albicans ATCC 90028, read at 100%

Compound | IC50 [3] | MNT [4] | CYP inh. (3A4) [5] | CYP inh. (2C9) [6] | GSH adduct [7] | fu (m), fraction unbound in mouse plasma [8] | Vss [9] | t1/2, terminal plasma half-life [9] | Cl [9] | Threshold concentration for precipitation [10] | percent inhibition [14] | other results
CN1C(=O)[C@H](CCCCN)NC(=O)[C@H](CCCN)NCc2cccnc2Sc2c(Cl)ccc(-c3ccc(C(=O)O)cc3)c2CNC(=O)[C@@H]1Cc1c[nH]c2ccccc12 [RO7202110] | > 100 µM | Negative | >50 (3A4) >50 (2C9) >50 (2D6) μM | >50 (3A4) >50 (2C9) >50 (2D6) μM | Clean | 10% | 0.9 L/kg | 12 min | 84 mL/min/kg | 0.39 mg/mL | -6% | MIC ([1]; ATCC29213, CAMHB, mode of at least three replicates (RO7036668 one replicate)): > 64 µg/mL; MIC ([2]; ATCC27853, CAMHB, mode of at least three replicates (RO7036668 one replicate)): > 64 µg/mL; inhibition at 10 µM ([11]; 10 µM, duplicates): -24%; inhibition at 10 µM ([12]; 10 µM, duplicates): 3%; inhibition at 10 µM ([13]; 10 µM, duplicates): 17%
CN1C(=O)[C@H](CCCCN)NC(=O)[C@H](CCCN)NCc2cccnc2Sc2cccc(-c3ccc(C(=O)O)cc3)c2CNC(=O)[C@@H]1Cc1c[nH]c2ccccc12 [zosurabalpin] | > 100 µM | Negative | >50 (3A4) >50 (2C9) >50 (2D6) μM | >50 (3A4) >50 (2C9) >50 (2D6) μM | Clean | 37% | 0.7 L/kg | 18 min | 51 mL/min/kg | 1.76 mg/mL | -3% | RO7223280 MIC 100% ([1]; Study LGC296813): >64 µg/mL; RO7223280 MIC 100% ([1]; Study LGC299544): >64 µg/mL; RO7223280 MIC 100% ([1]; Study LGC308175): >64 µg/mL; MIC ([1]; ATCC29213): > 64 µg/mL; RO7223280 MIC 100% ([2]; Study LGC296813): >64 µg/mL; RO7223280 MIC 100% ([2]; Study LGC299544): >64 µg/mL; RO7223280 MIC 100% ([2]; Study LGC308175): >64 µg/mL; MIC ([2]; ATCC27853): > 64 µg/mL; inhibition at 10 µM [11]: -18%; inhibition at 10 µM [12]: -16%; inhibition at 10 µM [13]: 9%; RO7223280 MIC 100% ([15]; Study LGC296813): >64 µg/mL; RO7223280 MIC 100% ([15]; Study LGC299544): >64 µg/mL; RO7223280 MIC 100% ([15]; Study LGC308175): >64 µg/mL
